Results: US20240122179A1, “AUXINIC HERBICIDES AND METHODS OF USE THEREOF” (CORTEVA AGRISCIENCE LLC, priority 2021, published 2024)

Columns and labels:
Experiment in all cases: Postemergence herbicide evaluation, percent reduction in plant size vs untreated control, 21 days after treatment
[1] = system: Ambrosia artemisiifolia (AMBEL); type: in vivo, Ambrosia artemisiifolia (common ragweed); conditions: post-emergence, 504 h, AMBEL, postemergence, read-out: Control/Injury; for pest or weed control at 140 g/ha: rate 140 g ae/ha; for pest or weed control at 280 g/ha: rate 280 g ae/ha
Description: (§1) Plants were grown in a soil media composed of 90% by volume Promix BX (Premier Tech Horticulture, Quakertown, PA) and 10% Profile Greens Grade (Profile Products LLC, Buffalo Grove, IL). Promix BX contains approximately 83% Sphagnum Peat Moss, 13% Perlite, 5% vermiculite, and proprietary amounts of limestone, starter fertilizer, and wetting agent. Profile Greens Grade is a sand-sized granule formed from calcining illite and montmorillonite clay. Several seeds of each species were planted in 10 cm square pots and top watered twice daily. Plant material was propagated in a warm greenhouse with temperature ranging from 25 to 28° C. and 50 to 60% relative humidity at the Corteva Global Headquarters (Indianapolis, Indiana, USA). Natural light was supplemented with 1000-watt metal halide overhead lamps with an average illumination of 500 μE m^−2 s^−1 photosynthetic active radiation for 16 consecutive hours each day. Plants were top-watered prior to herbicide application and sub-watered after herbicide application.
(§2) Appropriate amounts of test materials were weighed out into glass vials in their technical form to deliver either 140 or 280 g acid equivalent (ae)/ha. The samples were dissolved in 3 ml of Solvent 1. Solvent 1 is 97% acetone and 3% dimethyl sulfoxide and serves as a general-purpose solvent (GPS) for dissolving technical materials. […] The samples were then diluted to their final concentration using 17 ml of solvent 2 for a total of 20 ml of spray solution. Solvent 2 contains 41.58% GPS, 45.53% water, 11.88% isopropyl alcohol, 0.99% crop oil concentrate and 0.02% Trition X-155 surfactant. All percentages are listed on a volume basis. Dicamba diglycolamine was applied as a formulated herbicide, Clarity™ and diluted with solvent 2 to compare all materials in the same spray solution.
(§3) Herbicide applications were made to 3 to 4 replicates of each plant species at the 2 to 8 leaf stage, depending on the species. Treatments were applied with a research track-sprayer (Generation III Research Sprayer manufactured by DeVries Manufacturing in Hollandale, MN, USA) calibrated to deliver a spray volume of 187 L/ha. The track-sprayer was fitted with an 8003E nozzle from Spray Systems Company (North Avenue and Schmale Road, P.O. Box 7900, Wheaton, IL 60187), and used a spray pressure of 276 kPa pressure and a speed of 3.1 km/h. The nozzle height was 46 cm above the plant canopy. The experimental design used for the trials was a randomized complete block with 3 or 4 replications per treatment. After application, plants were placed on carts according to the randomization and returned to the greenhouse. Plants were sub-watered after treatment with Indianapolis city water or fertilized three times a week with a commercial fertilizer solution (Jack's Professional 15-5-15 4 Ca 2 Mg fertilizer (manufactured by JR PETERS INC., 6656 Grant Way, Allentown, PA 18106; www.jrpeters.com). Percent visual control assessments were made on a scale of 0 to 100% (where 0 was no control and 100 was complete plant death) at 7, 14, and 21 days after treatment.
(§4) In conformity with the methods outlined in Example 49, the effect of representative experimental compounds on the growth of Ambrosia artemisiifolia (AMBEL), (common ragweed), was determined at 2 different levels (respectively, 140 and 280 g acid equivalent (ae)/ha) of the experimental actives tested. Plants were treated with one of the compounds, a control plant was not treated. Twenty-one days after treatment, the plants were measured. The data is present as a percent reduction in plant size relative to the untreated control.

[2] = system: Conyza canadensis (L.) (ERICA); type: in vivo, Conyza canadensis (L.) (Horseweed); conditions: Erigeron canadensis, post-emergence, 504 h, ERICA, postemergence, read-out: Control/Injury; for pest or weed control at 140 g/ha: rate 140 g ae/ha; for pest or weed control at 280 g/ha: rate 280 g ae/ha
Description: as §1, §2, §3
as §4, with “Conyza canadensis (L.), (ERICA), common name, Horseweed,” for “Ambrosia artemisiifolia (AMBEL), (common ragweed),”

[3] = system: Amaranthus palmeri (AMAPA); type: in vivo, Amaranthus palmeri (Palmer amaranth); conditions: post-emergence, 504 h, AMAPA, postemergence, read-out: Control/Injury; for pest or weed control at 140 g/ha: rate 140 g ae/ha; for pest or weed control at 280 g/ha: rate 280 g ae/ha
Description: as §1, §2, §3
as §4, with “Amaranthus palmeri (AMAPA), common name, Palmer amaranth,” for “Ambrosia artemisiifolia (AMBEL), (common ragweed),”

[4] = system: Amaranthus rudis (AMATA); type: in vivo, Amaranthus rudis (tall water hemp); conditions: Amaranthus tuberculatus, post-emergence, 504 h, AMATA, postemergence, read-out: Control/Injury; for pest or weed control at 140 g/ha: rate 140 g ae/ha; for pest or weed control at 280 g/ha: rate 280 g ae/ha
Description: as §1, §2, §3
as §4, with “Amaranthus rudis (AMATA), common name tall water hemp,” for “Ambrosia artemisiifolia (AMBEL), (common ragweed),”

[5] = system: Kochia scoparia (KCHSC); type: in vivo; conditions: Bassia scoparia, post-emergence, 504 h, KCHSC, postemergence, percent reduction vs untreated, 21 days after treatment, read-out: Control/Injury; for pest or weed control at 140 g/ha: rate 140 g ae/ha; for pest or weed control at 280 g/ha: rate 280 g ae/ha
Description: as §1, §2, §3
as §4, with “Kochia scoparia (KCHSC)” for “Ambrosia artemisiifolia (AMBEL), (common ragweed),”

| SMILES | pest or weed control at 140 g/ha [1] [%] | pest or weed control at 280 g/ha [1] [%] | pest or weed control at 140 g/ha [2] [%] | pest or weed control at 280 g/ha [2] [%] | pest or weed control at 140 g/ha [3] [%] | pest or weed control at 280 g/ha [3] [%] | pest or weed control at 140 g/ha [4] [%] | pest or weed control at 280 g/ha [4] [%] | pest or weed control at 140 g/ha [5] [%] | pest or weed control at 280 g/ha [5] [%] |
| --- | --- | --- | --- | --- | --- | --- | --- | --- | --- | --- |
| COc1c(Cl)ccc(Cl)c1C(=O)NNc1nc2ccccc2o1 [Compound A-109] | 23 | 20 | 3 | 5 | 8 | 5 | 2 | 3 | 0 | 3 |
| COc1c(Cl)ccc(Cl)c1C(=O)NNCc1ccccc1 [Compound A-111] | 25 | 35 | 8 | 10 | 20 | 33 | 18 | 28 | 5 | 5 |
| CCCNNC(=O)c1c(Cl)ccc(Cl)c1OC [Compound A-112] | 18 | 38 | 10 | 10 | 18 | 33 | 13 | 20 | 0 | 18 |
| COc1c(Cl)ccc(Cl)c1C(=O)n1ncc2ccccc21 [Compound A-113] | 70 | 90 | 50 | 99 | 40 | 70 | 50 | 63 | 85 | 93 |
| COc1c(Cl)ccc(Cl)c1C(=O)n1cnc2ccccc21 [Compound A-115] | 5 | 28 | 3 | 13 | 20 | 38 | 15 | 38 | 8 | 13 |
| CCc1nnc(OC(=O)c2c(Cl)ccc(Cl)c2OC)s1 [Compound A-119] | 5 | 10 | 0 | 10 | 8 | 20 | 20 | 13 | 10 | 3 |
| COc1c(Cl)ccc(Cl)c1C(=O)Oc1ncn(-c2ccccc2)n1 [Compound A-121] | 88 | 98 | 97 | 99 | 75 | 85 | 75 | 94 | 83 | 96 |
| COc1c(Cl)ccc(Cl)c1C(=O)Oc1noc2ccccc12 [Compound A-122] | 73 | 97 | 95 | 100 | 28 | 45 | 38 | 50 | 80 | 93 |
| COc1c(Cl)ccc(Cl)c1C(=O)OCc1cc(COC(=O)c2c(Cl)ccc(Cl)c2OC)cc(COC(=O)c2c(Cl)ccc(Cl)c2OC)c1 [Compound A-123] | 5 | 5 | 0 | 0 | 2 | 3 | 0 | 8 | 0 | 0 |
| COc1c(Cl)ccc(Cl)c1C(=O)NOc1ccccc1 [Compound A-124] | 20 | 28 | 0 | 3 | 4 | 3 | 3 | 10 | 0 | 0 |
| COc1c(Cl)ccc(Cl)c1C(=O)n1ccnc1 [Compound A-126] | 33 | 50 | 15 | 33 | 33 | 35 | 45 | 55 | 28 | 50 |
| COc1c(Cl)ccc(Cl)c1C(=O)NN1CCOCC1 [Compound A-127] | 30 | 63 | 18 | 13 | 20 | 23 | 30 | 35 | 3 | 5 |
